Test results reported in patent US20190086390A1, “INDIRECT ASSESSMENT OF INSULIN RELEASE IN A CELL” (Board of Supervisors of Louisiana State University and …, priority 2016, published 2019).
Values joined by “and” are separate entries in the source; they are usually repeats but may differ in a detail not shown here. Identical values can stand only once. “Also recorded” adds a separate entry of the source.

Legend:
Type in all cases: cell-based, rat
832/13 cells [1] = experiment: Glucose-stimulated insulin secretion (GSIS) in 832/13 cells, insulin ELISA; conditions: for decrease in GSIS: 1 ng/ml IL-1β
Procedure: (§1) 832/13 cells were grown in 12-well plates and treated as indicated. Glucose-stimulated insulin secretion (GSIS) assays were performed as described previously (29). Insulin secretion by cell lines into the media was measured using either the High Range Rat Insulin ELISA kit (Mercodia, Uppsala, Sweden) or by rat islets using the insulin radioimmunoassay (Siemens, Malvern, Pa.) according to the company directions. In addition, cells were lysed using M-PER lysis reagent (Thermo Fisher Scientific) to quantify total intracellular protein content via BCA assay (Thermo Fisher Scientific). Insulin secretion data were normalized to total protein to account for any differences in cell number between treatment groups. Incorporation of tritiated thymidine into DNA as a cellular index of proliferation was carried out as described (45).

CCL2 = CCL2 secretion into media of 832/13 cells, ELISA
Procedure: (§2) 832/13 cells were grown in 12-well plates and treated as indicated. RPMI was supplemented with 0.3% BSA, and media were collected at the indicated time points. In addition, the cells were lysed using M-PER lysis reagent (Thermo Fisher Scientific) to quantify total intracellular protein content. CCL2 and CCL20 secretion into the media was measured by CCL2 Quantikine ELISA kit (R & D Systems, Minneapolis, Minn.) and CCL20 DuoSet ELISA kit (R & D Systems) according to the manufacturer's protocol. ELISA data were normalized to total protein to account for any differences in cell number between treatment groups.

CCL20 = CCL20 secretion into media of 832/13 cells, ELISA; conditions: glucose 2, 4, 8 or 16 mM; IL-1β 6 h
Procedure: as §2

iNOS = iNOS mRNA (RT-PCR) and protein (immunoblot) abundance in 832/13 cells; conditions: 832/13 cells exposed to IL-1β
Source text: RNA isolation from cell lines and rat islets, cDNA synthesis, and analysis of real-time RT-PCR data has been described in detail previously (12). For all transcripts studied, the relative mRNA abundance was normalized to that of the housekeeping gene ribosomal S9. Primers used to detect transcript levels of ribosomal S9, iNOS, IL-1, and Nkx6.1 were designed using Primer3Plus software and are available upon request.
Cell lysis and extraction of cytoplasmic and nuclear protein fractions was performed using the NE-PER kit (Thermo Fisher Scientific) according to the manufacturer's directions. The protein concentration of the lysate was determined using the bicinchoninic acid assay (Thermo Fisher Scientific), using BSA as the standard. SDS-PAGE, transfer to polyvi-nylidene difluoride membranes, membrane blocking before antibody incubation, and downstream subsequent detection using a ChemiDoc imaging system (Bio-Rad) have been described previously (16). Antibodies detecting β-actin or tubulin were used as loading controls. Antibodies used were from the following sources: iNOS (Santa Cruz Biotechnology), (3-actin (Cell Signaling Technology), Ikα: (Santa Cruz Biotechnology), tubulin (Cell Signaling Technology), and Pdx-1 (Cell Signaling Technology). The antibody recognizing Nkx6.1 has been described (34). Immunoblot images were quantified using Image Lab software (Bio-Rad).

832/13 cells [2] = experiment: Tritiated thymidine incorporation into DNA (proliferation); conditions: IL-1β 18 h
Procedure: as §1

832/13 and 833/15 cells = experiment: Mitochondrial/nuclear DNA ratio analysis; conditions: 6 or 18 h
Procedure: Genomic DNA was isolated using a DNeasy kit from Qiagen (Valencia, Calif.) per the manufacturer's protocol and quantified via quantitative PCR using iTaq Universal SYBR Green Supermix (Bio-Rad). Mitochondrial number was determined as the expression of genes encoded by mitochondrial DNA (COI and ATP6) relative to nuclear genes (NDUFA and SDHA) using the AACT method. This methodology has been described previously (24).

832/13 cells [3] = experiment: MTS dye reduction assay; conditions: 1 ng/ml IL-1β, 18 h
Procedure: Nitrite in the cell culture media was measured as an index of NO production using the Griess assay kit (Promega, Madison, Wis.), whereas cellular reduction of the 3-(4,5-dimethylthiazol-2-yl)-5-(3-carboxymethoxyphenyl)-2-(4-sulfophe-nyl)-2H-tetrazohum, inner salt (MTS) dye was determined using the MTS 1 solution kit (Promega) according to the manufacturer's protocol.

832/13 cells [4] = experiment: Oxygen consumption rate (Seahorse XF24); conditions: 1 ng/ml IL-1β, 18 h
Procedure: Oxygen consumption rates (OCR) were measured using the XF^24 Extracellular Flux Analyzer (Seahorse Bioscience, Chicopee, Mass.). 832/13 cells were grown on cell culture plates for 2 days prior to OCR assays being run. Cells were treated with vehicle, 1 ng/ml IL-β, 1 mM I-NMMA, or both IL-1β (1 ng/ml) plus I-NMMA (1 mM) for 18 h prior to OCR being measured. The oxygen consumption rate was measured over a 2-h period. Data represent the calculated average area under the curve from six wells per treatment group over multiple independent experiments.

[5] = system: voltage-gated Ca^2+ channels; experiment: Whole cell voltage clamp recordings; conditions: n=25; for cell size (whole cell capacitance) vs control: IL-1β pretreatment
Source text: Cell culture dishes were mounted on the stage of an Olympus K70 inverted microscope. A reference Ag/AgCl pellet served to ground the bath. Patch electrodes were pulled from thick-walled borosilicate glass with a filament (outer diameter 1.5 mm; inner diameter: 0.86 mm; Sutter Instruments, Novato, Calif.) using a Haming-Brown Micropipette Puller (Sutter Instruments). Electrode resistance values ranged from 4 to 7 Mfl. Ruptured patch, whole cell voltage clamp recordings were made using an Axopatch ID-patch clamp amplifier (Molecular Devices, Sunnyvale, Calif.). Data were recorded using pClamp 10.0 software (Molecular Devices). Unless otherwise indicated, all reagents were purchased from Sigma-Aldrich (St. Louis, Mo.). External solutions consisted of the following (in mM): 116.7 NaCl, 20.0 TEAC1, 3.0 CaCl2, 0.4 MgCl2, 4.0 glucose, and 10.0 HEPES. Voltage clamp experiments were performed in the ruptured patch configuration using the following internal solution (in mM): 100.00 CsAc, 10.0 CsCl, 2.0 MgCl2, 0.1 CaCl2, and 10.0 HEPES. Also included was an ATP regeneration system to preserve Ca^2+ currents [3.0 ATP (dipotassium), 1.0 ATP (disodium), 20.0 phosphocreatine, 2.0 GTP, and 50 U/ml creatine phos-phokinase]. Cesium was used as a substitute for K^+ to minimize currents through voltage-gated K^+ channels. Tetrodotoxin (300 nM; Alomone Laboratories, Jerusalem, Israel) was included in the external solution to block voltage-gated Na^+ currents. The liquid junction potential error for these solutions was estimated to be −13 mV (pClamp). Solutions were adjusted to pH 7.4 with NaOH for external solutions and with CsOH for internal solutions. A pressurized gravity flow perfusion system (1.5-2 mi/min) was used to deliver the external solutions (AutoMate Scientific, Berkeley, Calif.).

IL-1β: proinflammatory cytokine purchased from Thermo Fisher Scientific, used at 1 ng/ml
decrease in GSIS (832/13 cells [1]; 6 h): 40% and 36%
decrease in GSIS (832/13 cells [1]; 12 h): 59%
time by which insulin secretion began to decrease (832/13 cells [1]; IL-1β): ≤ 6 h
diminution in GSIS (832/13 cells [1]; IL-1β, associated with 13-fold increase in nitrite, time not given): 54%
expression and secretion of CCL2 in response to IL-1β (CCL2; 832/13 cells, 1 ng/ml IL-1β): markedly elevated; also recorded: strongly induced
time to chemokine secretion after cellular exposure (CCL2; IL-1β): 3 to 6 h
IL-1β-induced secretion of CCL2 over a range of glucose concentrations (CCL2; glucose 2, 4, 8 or 16 mM, IL-1β 6 h): not different
IL-1β-induced secretion of CCL20 over a range of glucose concentrations (CCL20): not different
iNOS expression (transcript and protein) (iNOS): rapidly induced; also recorded: accumulates; also recorded: robust iNOS abundance
ability to incorporate thymidine into DNA (832/13 cells [2]): reduced markedly
mitochondrial/nuclear DNA ratios (832/13 and 833/15 cells): did not detect any alterations
decrease in reduction of the MTS dye (832/13 cells [3]): 38%
decrease in cellular oxygen consumption rate (832/13 cells [4]): 25%
cell size (whole cell capacitance) vs control [5]: no effect on cell size
cell size (whole cell capacitance) vs control ([5]; listed as IL-I1β): not significantly different
voltage-gated Ca^2+ current density vs control ([5]; IL-1β-treated 832/13 cells, step to −3 mV): not significantly different; also recorded: No significant difference
